Reference: article PMC7247319, “The mitochondria-targeted peptide SS-31 binds lipid bilayers and modulates surface electrostatics as a key component of its mechanism of action” (The Journal of Biological Chemistry, 2020)
Where a SMILES comes first, the peptide text is derived from it. [ ]: non-standard residue; d: D form. Dmt = Cc1cc(O)cc(C)c1C[C@H](N)C(=O)O

Tested on: LUVs with 20% TOCL
Experiment: CG-5N assay of Ca2+ accumulation at model membrane interface
Conditions: peptide titrated into LUVs with 20% TOCL prebound with Ca2+
Excerpt: Figure 7. SS peptide effects on Ca^2+-membrane interactions and mitochondrial cation stress. A, profiles of surface potential decay (top) and ion distribution (bottom) based on GCS theory in the presence or absence of SS-31 (see supporting Results H for model description). B, effect of SS peptides on Ca^2+ accumulation at model membrane interfaces. […] C and D, effect of SS peptides on mitochondrial Ca^2+ uptake. C, time courses of TMRM or CG-5N emission in mitochondrial suspensions with ETH-129 in the absence (top) or presence (bottom) of SS-31 following the addition of NADH (black arrowheads) and CaCl2 (open arrowheads). See Fig. S18A for experimental details. […] Spectral deconvolution yielded the indicated components (see Fig. S19, A and B), which were used to quantify the area ratios of L2/iso in F (values shown are means ± S.D. (error bars) (n = 3). G, respirometry analysis. Mitochondria (1 mg ml^−1) were treated in the absence or presence of SS-31 (54.4 μM) or CaCl2 (1 mM) as indicated and measured for state 2 respiration (n = 10–12 each).
First, we measured the effects of SS peptides on the accumulation of Ca^2+ in the interfacial region of model membranes. […] We reasoned that the binding of Ca^2+ to the headgroup region of anionic lipid bilayers would reduce the bulk Ca^2+ detected by the CG-5N probe, providing a direct readout of Ca^2+ accumulation at the membrane interface. […]

## Cc1cc(O)cc(C)c1C[C@H](NC(=O)[C@H](N)CCCNC(=N)N)C(=O)N[C@@H](CCCCN)C(=O)N[C@@H](Cc1ccccc1)C(N)=O [SS-31, D-Arg-2′6′-dimethyl-Tyr-Lys-Phe-NH2] (H-[dR][Dmt]KF-NH2)
  release of Ca2+ from membrane interface (CG-5N response): released Ca^2+ from the membrane interface in a dose-dependent manner
